Assay results from ChEMBL document CHEMBL1141980, “Novel use of chemical shift in NMR as molecular descriptor: a first report on modeling carbonic anhydrase inhibitory activity and related parameters” (Bioorg Med Chem Lett, 2005).

Assay: Diuretic activity was determined
Type: ADME, tissue-based, Urine
Parameters: reference not given here

Compound | pC
NS(=O)(=O)c1ccccc1 [BENZENESULFONAMIDE] | 0.13
CC(=O)c1ccc(S(N)(=O)=O)cc1 | 0.398
Cc1ccc(S(N)(=O)=O)cc1 [P-TOLUENESULFONAMIDE] | 0.182
CNc1ccc(S(N)(=O)=O)cc1 | -0.036
NS(=O)(=O)c1ccc(Cl)cc1 [P-CHLOROBENZENESULFONAMIDE] | 0.286
NS(=O)(=O)c1cccc(Cl)c1 | 0.292
Cc1ccccc1S(N)(=O)=O | 0.301
NS(=O)(=O)c1ccc([N+](=O)[O-])cc1 | 0.824
NS(=O)(=O)c1cccc([N+](=O)[O-])c1 | 0.678
NS(=O)(=O)c1ccc(Br)cc1 | 0.267
N#Cc1ccc(S(N)(=O)=O)cc1 | 1
NS(=O)(=O)c1ccc(Cl)c(Cl)c1 | 0.243
NS(=O)(=O)c1ccc([N+](=O)[O-])c(C(F)(F)F)c1 | 0.58
Nc1ccc(S(N)(=O)=O)cc1 [SULFANILAMIDE] | -0.301
COc1ccc(S(N)(=O)=O)cc1 | 0.188
NS(=O)(=O)c1ccc(Cl)c([N+](=O)[O-])c1 | 0.322
Cc1cccc(S(N)(=O)=O)c1 | 0.176
NS(=O)(=O)c1ccccc1Cl | 0.301
NS(=O)(=O)c1ccccc1[N+](=O)[O-] | 0.301
